# Source: ChEMBL document CHEMBL1128033, “Design and synthesis of new leads for PKC bisubstrate inhibitors” (Bioorg Med Chem Lett, 1994)
# Molecular target: cAMP-dependent protein kinase (PKA) (Homo sapiens, UniProt P22694+P17612+P22612)
# Assay: Inhibition of c-AMP dependent kinase (PKA) using histone II A protein
# Type: protein assay
row,SMILES,IC50
1,NCCCCCCNC1=C(c2cc3ccccc3[nH]2)C(=O)NC1=O,50 µM
2,NC(Cc1ccccc1)C(=O)NCCNCCCCCNC1=C(c2cc3ccccc3[nH]2)C(=O)NC1=O (stereo not drawn),120 µM
3,NCCCCCNC1=C(c2cc3ccccc3[nH]2)C(=O)NC1=O,300 µM
4,NCCCNCCCNC1=C(c2cc3ccccc3[nH]2)C(=O)NC1=O,390 µM
5,NC(CCC(=O)O)C(=O)NCCCCCNC1=C(c2cc3ccccc3[nH]2)C(=O)NC1=O (stereo not drawn),390 µM
6,NCCNC1=C(c2cc3ccccc3[nH]2)C(=O)NC1=O,100 µM
7,NCCNCCCCCNC1=C(c2cc3ccccc3[nH]2)C(=O)NC1=O,> 500 µM
8,NCCCCCCCNC1=C(c2cc3ccccc3[nH]2)C(=O)NC1=O,150 µM
9,NCCNCCNC1=C(c2cc3ccccc3[nH]2)C(=O)NC1=O,310 µM
10,NC(N)=NCCCC(N)C(=O)NCCNCCCCCNC1=C(c2cc3ccccc3[nH]2)C(=O)NC1=O (stereo not drawn),210 µM

# Molecular target: Protein kinase C (PKC)
# Assay: Inhibition of protein kinase C (PKC) using histone III S protein
# Type: protein assay
row,SMILES,IC50
1,NCCCCCCNC1=C(c2cc3ccccc3[nH]2)C(=O)NC1=O,40 µM
2,C[C@H]1CNCCN1S(=O)(=O)c1cccc2cnccc12,6 µM
3,NC(Cc1ccccc1)C(=O)NCCNCCCCCNC1=C(c2cc3ccccc3[nH]2)C(=O)NC1=O (stereo not drawn),95 µM
4,NCCCCCNC1=C(c2cc3ccccc3[nH]2)C(=O)NC1=O,8 µM
5,NC(Cc1ccccc1)C(=O)NCCCCCNC1=C(c2cc3ccccc3[nH]2)C(=O)NC1=O (stereo not drawn),120 µM
6,NCCCNCCCNC1=C(c2cc3ccccc3[nH]2)C(=O)NC1=O,100 µM
7,NC(CCC(=O)O)C(=O)NCCCCCNC1=C(c2cc3ccccc3[nH]2)C(=O)NC1=O (stereo not drawn),105 µM
8,NCCNC1=C(c2cc3ccccc3[nH]2)C(=O)NC1=O,90 µM
9,NCCNCCCCCNC1=C(c2cc3ccccc3[nH]2)C(=O)NC1=O,110 µM
10,NCCCCCCCNC1=C(c2cc3ccccc3[nH]2)C(=O)NC1=O,5 µM
11,NCCNCCNC1=C(c2cc3ccccc3[nH]2)C(=O)NC1=O,120 µM
12,NC(N)=NCCCC(N)C(=O)NCCCCCNC1=C(c2cc3ccccc3[nH]2)C(=O)NC1=O (stereo not drawn),60 µM
13,NC(N)=NCCCC(N)C(=O)NCCNCCCCCNC1=C(c2cc3ccccc3[nH]2)C(=O)NC1=O (stereo not drawn),8 µM
